Laboratory results published in PubChem BioAssay (NCI).
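How tested: cells in 96-well plates exposed to compound for 48 hours at five concentrations. TGI: total growth inhibition.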

What was measured:
Experiment in all cases: DTP human tumour cell line panel, 48 h
U251 CNS = system: U251 CNS
HOP-62 NSCLC = system: HOP-62 NSCLC
NCI-H460 lung = system: NCI-H460 lung
MOLT-4 leukemia = system: MOLT-4 leukemia
K-562 leukemia = system: K-562 leukemia
HOP-92 NSCLC = system: HOP-92 NSCLC
MDA-MB-435 = system: MDA-MB-435
SNB-75 CNS = system: SNB-75 CNS
LOX IMVI melanoma = system: LOX IMVI melanoma
SF-539 CNS = system: SF-539 CNS
OVCAR-5 ovarian = system: OVCAR-5 ovarian
PC-3 prostate = system: PC-3 prostate
HT29 colon = system: HT29 colon
MALME-3M melanoma = system: MALME-3M melanoma
SF-295 CNS = system: SF-295 CNS
COLO 205 colon = system: COLO 205 colon
SW-620 colon = system: SW-620 colon
OVCAR-3 ovarian = system: OVCAR-3 ovarian
SK-OV-3 ovarian = system: SK-OV-3 ovarian
EKVX NSCLC = system: EKVX NSCLC
SK-MEL-5 melanoma = system: SK-MEL-5 melanoma
OVCAR-8 ovarian = system: OVCAR-8 ovarian
SK-MEL-2 melanoma = system: SK-MEL-2 melanoma
MDA-N = system: MDA-N
CCRF-CEM leukemia = system: CCRF-CEM leukemia
SNB-19 CNS = system: SNB-19 CNS
IGROV1 ovarian = system: IGROV1 ovarian
UO-31 renal = system: UO-31 renal
BT-549 breast = system: BT-549 breast
M14 melanoma = system: M14 melanoma
SF-268 CNS = system: SF-268 CNS
SR leukemia = system: SR leukemia
MDA-MB-231 breast = system: MDA-MB-231 breast
HS 578T breast = system: HS 578T breast
RPMI-8226 leukemia = system: RPMI-8226 leukemia
SN12C renal = system: SN12C renal
HCT-116 colon = system: HCT-116 colon
MCF7 breast = system: MCF7 breast
CAKI-1 renal = system: CAKI-1 renal
OVCAR-4 ovarian = system: OVCAR-4 ovarian
UACC-62 melanoma = system: UACC-62 melanoma
ACHN renal = system: ACHN renal
T-47D breast = system: T-47D breast
TK-10 renal = system: TK-10 renal
HCC-2998 colon = system: HCC-2998 colon
DU-145 prostate = system: DU-145 prostate
786-0 renal = system: 786-0 renal
RXF 393 renal = system: RXF 393 renal
UACC-257 melanoma = system: UACC-257 melanoma
HCT-15 colon = system: HCT-15 colon
NCI-H23 lung = system: NCI-H23 lung
NCI-H522 lung = system: NCI-H522 lung
NCI-H226 lung = system: NCI-H226 lung
KM12 colon = system: KM12 colon
HL-60(TB) leukemia = system: HL-60(TB) leukemia
A549 NSCLC = system: A549 NSCLC
NCI/ADR-RES ovarian = system: NCI/ADR-RES ovarian

O=C1NN=C2C=C(c3ccc(Cl)cc3)CC(c3cccc(Br)c3)C12 (configuration not stated)
TGI (U251 CNS): > 100 µM
TGI (HOP-62 NSCLC): > 100 µM
TGI (NCI-H460 lung): > 100 µM
TGI (MOLT-4 leukemia): > 100 µM
TGI (K-562 leukemia): > 100 µM
TGI (HOP-92 NSCLC): 31.3 µM
TGI (MDA-MB-435): > 100 µM
TGI (SNB-75 CNS): > 100 µM
TGI (LOX IMVI melanoma): > 100 µM
TGI (SF-539 CNS): > 100 µM
TGI (OVCAR-5 ovarian): > 100 µM
TGI (PC-3 prostate): > 100 µM
TGI (HT29 colon): > 100 µM
TGI (MALME-3M melanoma): > 100 µM
TGI (SF-295 CNS): > 100 µM
TGI (COLO 205 colon): > 100 µM
TGI (SW-620 colon): > 100 µM
TGI (OVCAR-3 ovarian): > 100 µM
TGI (SK-OV-3 ovarian): > 100 µM
TGI (EKVX NSCLC): > 100 µM
TGI (SK-MEL-5 melanoma): > 100 µM
TGI (OVCAR-8 ovarian): > 100 µM
TGI (SK-MEL-2 melanoma): > 100 µM
TGI (MDA-N): > 100 µM
TGI (CCRF-CEM leukemia): 56.5 µM
TGI (SNB-19 CNS): 57.7 µM
TGI (IGROV1 ovarian): > 100 µM
TGI (UO-31 renal): > 100 µM
TGI (BT-549 breast): > 100 µM
TGI (M14 melanoma): > 100 µM
TGI (SF-268 CNS): > 100 µM
TGI (SR leukemia): > 100 µM
TGI (MDA-MB-231 breast): > 100 µM
TGI (HS 578T breast): 68.1 µM
TGI (RPMI-8226 leukemia): > 100 µM
TGI (SN12C renal): > 100 µM
TGI (HCT-116 colon): > 100 µM
TGI (MCF7 breast): > 100 µM
TGI (CAKI-1 renal): > 100 µM
TGI (OVCAR-4 ovarian): > 100 µM
TGI (UACC-62 melanoma): > 100 µM
TGI (ACHN renal): > 100 µM
TGI (T-47D breast): > 100 µM
TGI (TK-10 renal): > 100 µM
TGI (HCC-2998 colon): > 100 µM
TGI (DU-145 prostate): > 100 µM
TGI (786-0 renal): > 100 µM
TGI (RXF 393 renal): > 100 µM
TGI (UACC-257 melanoma): 67 µM
TGI (HCT-15 colon): 61.7 µM
TGI (NCI-H23 lung): > 100 µM
TGI (NCI-H522 lung): > 100 µM
TGI (NCI-H226 lung): > 100 µM
TGI (KM12 colon): > 100 µM
TGI (HL-60(TB) leukemia): > 100 µM
TGI (A549 NSCLC): > 100 µM
TGI (NCI/ADR-RES ovarian): > 100 µM
